Test results as given in patent US9624241B2 (Incyte Corporation, priority 2013, dated 2017).
Read-outs that look alike come from different tables or passages of the source.

Key:
[1] = system: BET proteins; assay: BET protein inhibition, assay not specified; details: comparison of chiral HPLC peaks
[2] = biological target: BRD4-BD2 (Homo sapiens (Human), UniProt O60885); assay: BRD4 AlphaScreen Assay (Example A1), BRD4-BD2; format: binding; details: Assay A1, 20 nM BRD4-BD2, 50 nM H4Ac4 peptide; read-out: BRD4 BD-2 enzyme IC50
Description: (§1) BRD4-BD1 and BRD4-BD2 assays were conducted in white 384-well polystyrene plate in a final volume of 20 μL for BD1 and 40 μL for BD2. Inhibitors were first serially diluted in DMSO and added to the plate wells before the addition of other reaction components. […] After plate sealing, the plate was incubated in the dark at room temperature for 75 min. before reading on a PHERAstar FS plate reader (BMG Labtech). IC50 determination was performed by fitting the curve of percent control activity versus the log of the inhibitor concentration using the GraphPad Prism 5.0 software.

[3] = biological target: BRD4-BD1 (Homo sapiens (Human), UniProt O60885); assay: BRD4 AlphaScreen Assay (Example A1), BRD4-BD1; format: binding; details: Assay A1, 3.8 nM BRD4-BD1, 50 nM H4Ac4 peptide; read-out: BRD4 BD-1 enzyme IC50
Description: as §1

[4] = system: KMS.12.BM cells; assay: KMS.12.BM Cell Viability Assay (Example B1); format: cell-based, human; details: 3 days, Cell Titer-GLO, read-out: KMS cellular IC50
Description: KMS.12.BM cell line (human myeloma) was purchased from JCRB (Osaka, Japan) and maintained in RPMI with 10% FBS culture medium. To measure the cytotoxic activity of the compounds through ATP quantitation, the KMS.12.BM cells are plated in the RPMI culture medium at 5000 cells/well/per 100 μL into a 96-well polystyrene clear black tissue culture plate (Greiner-bio-one through VWR, NJ), in the presence or absence of a concentration range of test compounds. After 3 days, […] Cell Titer-GLO Luminescent (Promega, Madison, Wis.) cell culture agent is added to each well for 10 min. at room temperature to stabilize the luminescent signal. This determines the number of viable cells in culture based on quantitation of the ATP present, which signals the presence of metabolically active cells.

Row | SMILES | IC50 [2] [nM] | IC50 [3] [nM] | relative activity of separated enantiomers [1] | IC50 [4] [nM] | IC50 ([4]; Homo sapiens, KMS-12-BM, 72 h) [nM]
1 | Cc1noc(C)c1-c1ccc2[nH]c(=O)n3c2c1OCC3c1ccccc1 (single isomer, unassigned) [Example 1A, 7-(3,5-Dimethylisoxazol-4-yl)-4-phenyl-4,5-dihydroimidazo[1,5,4-de][1,4]benzoxazin-2(1H)-one] | – | – | more active | – | –
2 | Cc1noc(C)c1-c1ccc2nc(N3CC[C@@H](O)C3)n3c2c1OCC3c1cccnc1 (single isomer, unassigned) [Example 159C] | – | – | – | 1000 to 10000 | –
3 | Cn1ncc(Cl)c1-c1ccc2[nH]c(=O)n3c2c1OCC3c1ccccc1 (stereo not drawn) [Example 38, 7-(4-Chloro-1-methyl-1H-pyrazol-5-yl)-4-phenyl-4,5-dihydroimidazo[1,5,4-de][1,4]benzoxazin-2(1H)-one] | 100 to 1000 | 1000 to 10000 | – | – | –
4 | Cc1noc(C)c1-c1ccc2[nH]c(=O)n3c2c1OCC3c1ccccn1 (single isomer, unassigned) [Example 14, 7-(3,5-Dimethylisoxazol-4-yl)-4-pyridin-2-yl-4,5-dihydroimidazo[1,5,4-de][1,4]benzoxazin-2(1H)-one] | 1000 to 10000 | 1000 to 10000 | – | – | –
5 | Cn1nccc1-c1cc(Br)c2[nH]c(=O)n3c2c1OCC3c1ccccc1 (stereo not drawn) [Example 36, 9-Bromo-7-(1-methyl-1H-pyrazol-5-yl)-4-phenyl-4,5-dihydroimidazo[1,5,4-de][1,4]benzoxazin-2(1H)-one] | < 100 | 100 to 1000 | – | – | –
6 | Cn1nccc1-c1ccc2[nH]c(=O)n3c2c1OCC3c1ccccc1 (stereo not drawn) [Example 35, 7-(1-Methyl-1H-pyrazol-5-yl)-4-phenyl-4,5-dihydroimidazo[1,5,4-de][1,4]benzoxazin-2(1H)-one] | < 100 | 100 to 1000 | – | – | –
7 | Cc1noc(C)c1-c1ccc2nc(N3CC(O)C3)n3c2c1OCC3c1ccccc1 (stereo not drawn) [Example 59, 1-[7-(3,5-Dimethylisoxazol-4-yl)-4-phenyl-4,5-dihydroimidazo[1,5,4-de][1,4]benzoxazin-2-yl]azetidin-3-ol] | < 100 | < 100 | – | – | –
8 | Cc1noc(C)c1-c1ccc2c3c1OCC(c1ccccc1)n3c(=O)n2CCN1CCOCC1 (stereo not drawn) [Example 10, 7-(3,5-Dimethylisoxazol-4-yl)-1-(2-morpholin-4-ylethyl)-4-phenyl-4,5-dihydroimidazo[1,5,4-de][1,4]benzoxazin-2(1H)-one] | < 100 | 100 to 1000 | – | – | –
9 | Cc1noc(C)c1-c1ccc2nc(N(C)CCO)n3c2c1OCC3c1ccccc1 (stereo not drawn) [Example 34, 2-[[7-(3,5-Dimethylisoxazol-4-yl)-4-phenyl-4,5-dihydroimidazo[1,5,4-de][1,4]benzoxazin-2-yl](methyl)amino]ethanol] | < 100 | < 100 | – | – | –
10 | Cc1noc(C)c1-c1ccc2[nH]c(=O)n3c2c1OCC3c1cccnc1 (stereo not drawn) [Example 5, 7-(3,5-Dimethylisoxazol-4-yl)-4-pyridin-3-yl-4,5-dihydroimidazo[1,5,4-de][1,4]benzoxazin-2(1H)-one] | < 100 | < 100 | – | – | –
11 | Cc1noc(C)c1-c1ccc2nc(NC(C)CO)n3c2c1OCC3c1ccccc1 (single isomer, unassigned) [Example 31, 2-{[7-(3,5-Dimethylisoxazol-4-yl)-4-phenyl-4,5-dihydroimidazo[1,5,4-de][1,4]benzoxazin-2-yl]amino}propan-1-ol] | < 100 | < 100 | – | – | –
12 | Cc1noc(C)c1-c1ccc2[nH]c(=O)n3c2c1OCC3c1ccccn1 (single isomer, unassigned) [Example 15, 7-(3,5-Dimethylisoxazol-4-yl)-4-pyridin-2-yl-4,5-dihydroimidazo[1,5,4-de][1,4]benzoxazin-2(1H)-one] | < 100 | < 100 | – | – | < 1000
13 | Cc1noc(C)c1-c1ccc2[nH]c(=O)n3c2c1OCC3c1ccccn1 (racemic) [Example 13, 7-(3,5-Dimethylisoxazol-4-yl)-4-pyridin-2-yl-4,5-dihydroimidazo[1,5,4-de][1,4]benzoxazin-2(1H)-one] | < 100 | < 100 | – | – | < 1000
14 | Cc1noc(C)c1-c1ccc2[nH]c(=O)n3c2c1OCC3C1CCCO1 (single isomer, unassigned) [Example 18A, 7-(3,5-Dimethylisoxazol-4-yl)-4-(tetrahydrofuran-2-yl)-4,5-dihydroimidazo[1,5,4-de][1,4]benzoxazin-2(1H)-one] | < 100 | 100 to 1000 | – | – | –
15 | Cc1noc(C)c1-c1ccc2[nH]c(=O)n3c2c1OCC3c1ccccc1 (single isomer, unassigned) [Example 1B, 7-(3,5-Dimethylisoxazol-4-yl)-4-phenyl-4,5-dihydroimidazo[1,5,4-de][1,4]benzoxazin-2(1H)-one] | – | – | less active | – | –
16 | Cc1noc(C)c1-c1ccc2[nH]c(=O)n3c2c1OCC3c1ccc(F)cc1 (stereo not drawn) [Example 49, 7-(3,5-Dimethylisoxazol-4-yl)-4-(4-fluorophenyl)-4,5-dihydroimidazo[1,5,4-de][1,4]benzoxazin-2(1H)-one] | < 100 | < 100 | – | – | –
17 | Cc1noc(C)c1-c1ccc2nc(NCC(C)O)n3c2c1OCC3c1ccccc1 (stereo not drawn) [Example 32, 1-{[7-(3,5-Dimethylisoxazol-4-yl)-4-phenyl-4,5-dihydroimidazo[1,5,4-de][1,4]benzoxazin-2-yl]amino}propan-2-ol] | < 100 | < 100 | – | – | –

The next lines start with results.

Row | IC50 [2] [nM] | IC50 [3] [nM] | SMILES | relative activity of separated enantiomers [1] | IC50 [4] [nM] | IC50 ([4]; Homo sapiens, KMS-12-BM, 72 h) [nM]
18 | < 100 | 100 to 1000 | Cc1n[nH]cc1-c1ccc2[nH]c(=O)n3c2c1OCC3c1ccccc1 (stereo not drawn) [Example 12, 7-(3-Methyl-1H-pyrazol-4-yl)-4-phenyl-4,5-dihydroimidazo[1,5,4-de][1,4]benzoxazin-2(1H)-one] | – | – | –
19 | < 100 | < 100 | Cc1noc(C)c1-c1ccc2[nH]c(=O)n3c2c1OCC3C1CCCCC1 (stereo not drawn) [Example 17, 4-Cyclohexyl-7-(3,5-dimethylisoxazol-4-yl)-4,5-dihydroimidazo[1,5,4-de][1,4]benzoxazin-2(1H)-one] | – | – | –
20 | < 100 | < 100 | COc1cccc(C2COc3c(-c4c(C)noc4C)ccc4[nH]c(=O)n2c34)c1 (stereo not drawn) [Example 6, 7-(3,5-Dimethylisoxazol-4-yl)-4-(3-methoxyphenyl)-4,5-dihydroimidazo[1,5,4-de][1,4]benzoxazin-2(1H)-one] | – | – | –
21 | < 100 | < 100 | Cc1noc(C)c1-c1ccc2nc(NC(C)C)n3c2c1OCC3c1ccccc1 (stereo not drawn) [Example 25, 7-(3,5-Dimethylisoxazol-4-yl)-N-isopropyl-4-phenyl-4,5-dihydroimidazo[1,5,4-de][1,4]benzoxazin-2-amine] | – | – | –
22 | < 100 | 100 to 1000 | Cc1noc(C)c1-c1ccc2[nH]c(=O)n3c2c1OCC3C1CCCO1 (single isomer, unassigned) [Example 18B, 7-(3,5-Dimethylisoxazol-4-yl)-4-(tetrahydrofuran-2-yl)-4,5-dihydroimidazo[1,5,4-de][1,4]benzoxazin-2(1H)-one] | – | – | –
23 | < 100 | < 100 | CCNc1nc2ccc(-c3c(C)noc3C)c3c2n1C(c1ccccc1)CO3 (stereo not drawn) [Example 27, 7-(3,5-Dimethylisoxazol-4-yl)-N-ethyl-4-phenyl-4,5-dihydroimidazo[1,5,4-de][1,4]benzoxazin-2-amine] | – | – | –
24 | < 100 | < 100 | Cc1noc(C)c1-c1ccc2nc(N3CCC(O)CC3)n3c2c1OCC3c1ccccc1 (stereo not drawn) [Example 57, 1-[7-(3,5-Dimethylisoxazol-4-yl)-4-phenyl-4,5-dihydroimidazo[1,5,4-de][1,4]benzoxazin-2-yl]piperidin-4-ol] | – | – | –
25 | < 100 | < 100 | Cc1noc(C)c1-c1ccc2[nH]c(=O)n3c2c1OCC3c1ccccc1OCC(=O)N(C)C (stereo not drawn) [Example 51, 2-{2-[7-(3,5-Dimethylisoxazol-4-yl)-2-oxo-1,2,4,5-tetrahydroimidazo[1,5,4-de][1,4]benzoxazin-4-yl]phenoxy}-N,N-dimethylacetamide] | – | – | –
26 | < 100 | < 100 | CNc1nc2ccc(-c3c(C)noc3C)c3c2n1C(c1ccccc1)CO3 (stereo not drawn) [Example 26, 7-(3,5-Dimethylisoxazol-4-yl)-N-methyl-4-phenyl-4,5-dihydroimidazo[1,5,4-de][1,4]benzoxazin-2-amine] | – | – | –
27 | < 100 | < 100 | COc1ccccc1C1COc2c(-c3c(C)noc3C)ccc3[nH]c(=O)n1c23 (stereo not drawn) [Example 7, 7-(3,5-Dimethylisoxazol-4-yl)-4-(2-methoxyphenyl)-4,5-dihydroimidazo[1,5,4-de][1,4]benzoxazin-2(1H)-one] | – | – | –
28 | < 100 | < 100 | Cc1noc(C)c1-c1ccc2[nH]c(=O)n3c2c1OCC3c1ccc(C#N)cc1 (stereo not drawn) [Example 4, 4-[7-(3,5-Dimethylisoxazol-4-yl)-2-oxo-1,2,4,5-tetrahydroimidazo[1,5,4-de][1,4]benzoxazin-4-yl]benzonitrile] | – | – | –
29 | < 100 | < 100 | Cc1noc(C)c1-c1ccc2nc(N3CCCC(O)C3)n3c2c1OCC3c1ccccc1 (stereo not drawn) [Example 58, 1-[7-(3,5-Dimethylisoxazol-4-yl)-4-phenyl-4,5-dihydroimidazo[1,5,4-de][1,4]benzoxazin-2-yl]piperidin-3-ol] | – | – | –
